# Data as given in PubChem BioAssay (NCI).
#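 Cultured in 96-well plates, cells were exposed to test compound for 48 hours across five concentrations. TGI: concentration producing complete growth inhibition.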
# Assays:
# Experiment in all cases: NCI tumour cell line growth inhibition, 48 h
# 786-0 renal = system: 786-0 renal
# A498 renal = system: A498 renal
# A549 NSCLC = system: A549 NSCLC
# ACHN renal = system: ACHN renal
# BT-549 breast = system: BT-549 breast
# COLO 205 colon = system: COLO 205 colon
# DU-145 prostate = system: DU-145 prostate
# EKVX NSCLC = system: EKVX NSCLC
# HCC-2998 colon = system: HCC-2998 colon
# HCT-116 colon = system: HCT-116 colon
# HL-60(TB) leukemia = system: HL-60(TB) leukemia
# HOP-62 NSCLC = system: HOP-62 NSCLC
# HOP-92 NSCLC = system: HOP-92 NSCLC
# HS 578T breast = system: HS 578T breast
# HT29 colon = system: HT29 colon
# IGROV1 ovarian = system: IGROV1 ovarian
# K-562 leukemia = system: K-562 leukemia
# KM12 colon = system: KM12 colon
# LOX IMVI melanoma = system: LOX IMVI melanoma
# M14 melanoma = system: M14 melanoma
# MALME-3M melanoma = system: MALME-3M melanoma
# MCF7 breast = system: MCF7 breast
# MDA-MB-231 breast = system: MDA-MB-231 breast
# MDA-MB-435 = system: MDA-MB-435
# MDA-N = system: MDA-N
# MOLT-4 leukemia = system: MOLT-4 leukemia
# NCI-H226 lung = system: NCI-H226 lung
# NCI-H23 lung = system: NCI-H23 lung
# NCI-H460 lung = system: NCI-H460 lung
# NCI-H522 lung = system: NCI-H522 lung
# NCI/ADR-RES ovarian = system: NCI/ADR-RES ovarian
# OVCAR-3 ovarian = system: OVCAR-3 ovarian
# OVCAR-4 ovarian = system: OVCAR-4 ovarian
# OVCAR-5 ovarian = system: OVCAR-5 ovarian
# OVCAR-8 ovarian = system: OVCAR-8 ovarian
# PC-3 prostate = system: PC-3 prostate
# RPMI-8226 leukemia = system: RPMI-8226 leukemia
# RXF 393 renal = system: RXF 393 renal
# SF-268 CNS = system: SF-268 CNS
# SF-295 CNS = system: SF-295 CNS
# SF-539 CNS = system: SF-539 CNS
# SK-MEL-2 melanoma = system: SK-MEL-2 melanoma
# SK-MEL-28 melanoma = system: SK-MEL-28 melanoma
# SK-MEL-5 melanoma = system: SK-MEL-5 melanoma
# SN12C renal = system: SN12C renal
# SNB-19 CNS = system: SNB-19 CNS
# SNB-75 CNS = system: SNB-75 CNS
# SR leukemia = system: SR leukemia
# SW-620 colon = system: SW-620 colon
# T-47D breast = system: T-47D breast
# TK-10 renal = system: TK-10 renal
# U251 CNS = system: U251 CNS
# UACC-257 melanoma = system: UACC-257 melanoma
# UACC-62 melanoma = system: UACC-62 melanoma
# UO-31 renal = system: UO-31 renal
# CAKI-1 renal = system: CAKI-1 renal
# CCRF-CEM leukemia = system: CCRF-CEM leukemia
# HCT-15 colon = system: HCT-15 colon
# SK-OV-3 ovarian = system: SK-OV-3 ovarian
compound,measurement,setting,value
CC(O)CC(=O)CO[C@H]1[C@H](O)[C@@H](O)[C@@H](O)[C@@H]2NC(=O)c3c(cc4c(c3O)OCO4)[C@H]21 (some centres not stated),TGI,786-0 renal,485 nM
same,TGI,A498 renal,72 nM
same,TGI,A549 NSCLC,352 nM
same,TGI,ACHN renal,613 nM
same,TGI,BT-549 breast,482 nM
same,TGI,COLO 205 colon,135 nM
same,TGI,DU-145 prostate,81.8 nM
same,TGI,EKVX NSCLC,140 nM
same,TGI,HCC-2998 colon,60.9 nM
same,TGI,HCT-116 colon,345 nM
same,TGI,HL-60(TB) leukemia,200 nM
same,TGI,HOP-62 NSCLC,319 nM
same,TGI,HOP-92 NSCLC,640 nM
same,TGI,HS 578T breast,153 nM
same,TGI,HT29 colon,179 nM
same,TGI,IGROV1 ovarian,256 nM
same,TGI,K-562 leukemia,4140 nM
same,TGI,KM12 colon,202 nM
same,TGI,LOX IMVI melanoma,117 nM
same,TGI,M14 melanoma,149 nM
same,TGI,MALME-3M melanoma,52.9 nM
same,TGI,MCF7 breast,461 nM
same,TGI,MDA-MB-231 breast,545 nM
same,TGI,MDA-MB-435,175 nM
same,TGI,MDA-N,446 nM
same,TGI,MOLT-4 leukemia,321 nM
same,TGI,NCI-H226 lung,1490 nM
same,TGI,NCI-H23 lung,457 nM
same,TGI,NCI-H460 lung,188 nM
same,TGI,NCI-H522 lung,96.2 nM
same,TGI,NCI/ADR-RES ovarian,27600 nM
same,TGI,OVCAR-3 ovarian,609 nM
same,TGI,OVCAR-4 ovarian,287 nM
same,TGI,OVCAR-5 ovarian,480 nM
same,TGI,OVCAR-8 ovarian,1530 nM
same,TGI,PC-3 prostate,303 nM
same,TGI,RPMI-8226 leukemia,147 nM
same,TGI,RXF 393 renal,131 nM
same,TGI,SF-268 CNS,62.6 nM
same,TGI,SF-295 CNS,314 nM
same,TGI,SF-539 CNS,71.2 nM
same,TGI,SK-MEL-2 melanoma,261 nM
same,TGI,SK-MEL-28 melanoma,8030 nM
same,TGI,SK-MEL-5 melanoma,62.3 nM
same,TGI,SN12C renal,784 nM
same,TGI,SNB-19 CNS,75.4 nM
same,TGI,SNB-75 CNS,404 nM
same,TGI,SR leukemia,125 nM
same,TGI,SW-620 colon,> 100000 nM
same,TGI,T-47D breast,109 nM
same,TGI,TK-10 renal,238 nM
same,TGI,U251 CNS,307 nM
same,TGI,UACC-257 melanoma,1020 nM
same,TGI,UACC-62 melanoma,682 nM
same,TGI,UO-31 renal,588 nM
O=C(O)C1CC(C2CCCCN2)CN2CCCCC12 (configuration not stated),TGI,786-0 renal,> 100000 nM
same,TGI,A498 renal,> 100000 nM
same,TGI,A549 NSCLC,> 100000 nM
same,TGI,ACHN renal,> 100000 nM
same,TGI,BT-549 breast,> 100000 nM
same,TGI,CAKI-1 renal,> 100000 nM
same,TGI,CCRF-CEM leukemia,> 100000 nM
same,TGI,COLO 205 colon,> 100000 nM
same,TGI,DU-145 prostate,> 100000 nM
same,TGI,EKVX NSCLC,> 100000 nM
same,TGI,HCC-2998 colon,> 100000 nM
same,TGI,HCT-116 colon,> 100000 nM
same,TGI,HCT-15 colon,> 100000 nM
same,TGI,HOP-62 NSCLC,> 100000 nM
same,TGI,HOP-92 NSCLC,> 100000 nM
same,TGI,HS 578T breast,> 100000 nM
same,TGI,HT29 colon,> 100000 nM
same,TGI,IGROV1 ovarian,> 100000 nM
same,TGI,K-562 leukemia,> 100000 nM
same,TGI,KM12 colon,> 100000 nM
same,TGI,LOX IMVI melanoma,> 100000 nM
same,TGI,M14 melanoma,> 100000 nM
same,TGI,MALME-3M melanoma,> 100000 nM
same,TGI,MCF7 breast,> 100000 nM
same,TGI,MDA-MB-231 breast,> 100000 nM
same,TGI,MDA-MB-435,> 100000 nM
same,TGI,MDA-N,> 100000 nM
same,TGI,MOLT-4 leukemia,> 100000 nM
same,TGI,NCI-H226 lung,> 100000 nM
same,TGI,NCI-H23 lung,> 100000 nM
same,TGI,NCI-H460 lung,> 100000 nM
same,TGI,NCI/ADR-RES ovarian,> 100000 nM
same,TGI,OVCAR-3 ovarian,> 100000 nM
same,TGI,OVCAR-4 ovarian,> 100000 nM
same,TGI,OVCAR-5 ovarian,> 100000 nM
same,TGI,OVCAR-8 ovarian,> 100000 nM
same,TGI,PC-3 prostate,> 100000 nM
same,TGI,RPMI-8226 leukemia,> 100000 nM
same,TGI,RXF 393 renal,> 100000 nM
same,TGI,SF-268 CNS,> 100000 nM
same,TGI,SF-295 CNS,> 100000 nM
same,TGI,SF-539 CNS,> 100000 nM
same,TGI,SK-MEL-2 melanoma,> 100000 nM
same,TGI,SK-MEL-28 melanoma,> 100000 nM
same,TGI,SK-MEL-5 melanoma,> 100000 nM
same,TGI,SK-OV-3 ovarian,> 100000 nM
same,TGI,SN12C renal,> 100000 nM
same,TGI,SNB-19 CNS,> 100000 nM
same,TGI,SNB-75 CNS,> 100000 nM
same,TGI,SR leukemia,> 100000 nM
same,TGI,SW-620 colon,> 100000 nM
same,TGI,T-47D breast,> 100000 nM
same,TGI,TK-10 renal,> 100000 nM
same,TGI,U251 CNS,> 100000 nM
same,TGI,UACC-257 melanoma,> 100000 nM
same,TGI,UACC-62 melanoma,> 100000 nM
same,TGI,UO-31 renal,> 100000 nM
